In brackets after ≈: the same amount, converted by molar mass. Like-named read-outs stand apart in the source and are kept apart here.
What was measured:
[1] = test system: E. coli ATCC 25922; test: MIC assay, CLSI broth microdilution, E. coli ATCC 25922 (AECO001); type: cell-based; details: Escherichia coli, read-out: MIC AECO001
Experimental: (§1) Minimum inhibitory concentrations (MIC) were determined by reference Clinical and Laboratory Standards Institute (CLSI) broth microdilution methods per M7-A7 [2006]. Quality control ranges utilizing E. coli ATCC 25922, P. aeruginosa ATCC 27853 and S. aureus ATCC 29213, and interpretive criteria for comparator agents were as published in CLSI M100-S17 [2007]. Briefly, serial two-fold dilutions of the test compounds were prepared at 2× concentration in Mueller Hinton Broth. The compound dilutions were mixed in 96-well assay plates in a 1:1 ratio with bacterial inoculum. The inoculum was prepared by suspension of a colony from an agar plate that was prepared the previous day. Bacteria were suspended in sterile saline and added to each assay plate to obtain a final concentration of 5×10^5 CFU/mL. The plates were incubated at 35° C. for 20 hours in ambient air.
These MIC assays were conducted following the same protocol as set forth in Example 110. As shown, substituted sisomicin derivatives with groups other than methyl at the 6′-position have improved activity against strains expressing the AAC6′-modifying enzymes.

[2] = test system: P. aeruginosa ATCC 27853; test: MIC assay, CLSI broth microdilution, P. aeruginosa ATCC 27853 (APAE001); type: cell-based; details: Pseudomonas aeruginosa, read-out: MIC APAE001
Experimental: as §1

Row | SMILES | MIC ([1]; ATCC25922, 20 h) | MIC ([2]; ATCC27853, 20 h) | MIC ([1]; AECO001 is ATCC25922, 35° C., 20 hours) | MIC ([2]; APAE001 is ATCC27853, 35° C., 20 hours)
1 | CN[C@@H]1[C@@H](O)[C@@H](O[C@@H]2[C@@H](O)[C@H](O[C@H]3OC(CNC(=O)C(O)CN)=CC[C@H]3N)[C@@H](N)C[C@H]2NC(=O)[C@@H](O)CN)OC[C@]1(C)O (stereo partly drawn) [Example 20, 6′-(3-Amino-2-hydroxy-propionyl)-1-(3-amino-2(S)-hydroxy-propionyl)-sisomicin] | > 16 µg/mL | > 16 µg/mL | – | –
2 | CN[C@@H]1[C@@H](O)[C@@H](O[C@@H]2[C@@H](O)[C@H](O[C@H]3OC(CNCC(O)C(N)=O)=CC[C@H]3N)[C@@H](N)C[C@H]2NC(=O)[C@@H](O)CN)OC[C@]1(C)O (stereo partly drawn) [Example 21, 6′-(2-Hydroxy-3-propionamide)-1-(3-amino-2(S)-hydroxy-propionyl)-sisomicin] | 1 to 16 µg/mL (≈ 1.61 to 25.7 µM) | 1 to 16 µg/mL (≈ 1.61 to 25.7 µM) | – | –
3 | CN[C@@H]1[C@@H](O)[C@@H](O[C@@H]2[C@@H](O)[C@H](O[C@H]3OC(CNCC(O)CO)=CC[C@H]3N)[C@@H](N)C[C@H]2NC(=O)CO)OC[C@]1(C)O (stereo partly shown) [Example 23, 6′-(2-Hydroxy-propanol)-1-(2-hydroxy-acetyl)-sisomicin] | > 16 µg/mL | > 16 µg/mL | – | –
4 | CN[C@@H]1[C@@H](O)[C@@H](O[C@@H]2[C@@H](O)[C@H](O[C@H]3OC(CNCCCN)=CC[C@H]3N)[C@@H](N)C[C@H]2NC(=O)CO)OC[C@]1(C)O [Example 24, 6′-(3-Amino-propyl)-1-(2-hydroxy-acetyl)-sisomicin] | 1 to 16 µg/mL (≈ 1.78 to 28.4 µM) | 1 to 16 µg/mL (≈ 1.78 to 28.4 µM) | – | –
5 | CN[C@@H]1[C@@H](O)[C@@H](O[C@@H]2[C@@H](O)[C@H](O[C@H]3OC(CNCCO)=CC[C@H]3N)[C@@H](N)C[C@H]2NC(=O)CO)OC[C@]1(C)O [Example 25, 6′-(2-Hydroxy-ethyl)-1-(2-hydroxy-acetyl)-sisomicin] | 1 to 16 µg/mL (≈ 1.82 to 29.1 µM) | 1 to 16 µg/mL (≈ 1.82 to 29.1 µM) | – | –
6 | CN[C@@H]1[C@@H](O)[C@@H](O[C@@H]2[C@@H](O)[C@H](O[C@H]3OC(CNCCCN)=CC[C@H]3N)[C@@H](N)C[C@H]2NS(=O)(=O)CCN)OC[C@]1(C)O [Example 26, 6′-(3-Amino-propyl)-1-(2-amino-ethylsulfonamide)-sisomicin] | 1 to 16 µg/mL (≈ 1.63 to 26.2 µM) | 1 to 16 µg/mL (≈ 1.63 to 26.2 µM) | – | –
7 | CN[C@@H]1[C@@H](O)[C@@H](O[C@@H]2[C@@H](O)[C@H](O[C@H]3OC(CNCC(O)CO)=CC[C@H]3N)[C@@H](N)C[C@H]2NS(=O)(=O)CCN)OC[C@]1(C)O (stereo partly shown) [Example 27, 6′-(2-Hydroxy-propanol)-1-(2-amino-ethylsulfonamide)-sisomicin] | 1 to 16 µg/mL (≈ 1.59 to 25.4 µM) | > 16 µg/mL | – | –
8 | CN[C@@H]1[C@@H](O)[C@@H](O[C@@H]2[C@@H](O)[C@H](O[C@H]3OC(CNC[C@H](O)CO)=CC[C@H]3N)[C@@H](N)C[C@H]2NC(=O)[C@@H](O)CCN)OC[C@]1(C)O [Example 28, 6′-(2(S)-Hydroxy-propanol)-1-(4-amino-2(S)-hydroxy-butyryl)-sisomicin] | 1 to 16 µg/mL (≈ 1.61 to 25.7 µM) | 1 to 16 µg/mL (≈ 1.61 to 25.7 µM) | – | –
9 | CN[C@@H]1[C@@H](O)[C@@H](O[C@@H]2[C@@H](O)[C@H](O[C@H]3OC(CNCCO)=CC[C@H]3N)[C@@H](N)C[C@H]2NS(=O)(=O)CCN)OC[C@]1(C)O [Example 29, 6′-(2-Hydroxy-ethyl)-1-(2-amino-ethylsulfonamide)-sisomicin] | 1 to 16 µg/mL (≈ 1.67 to 26.7 µM) | > 16 µg/mL | – | –
10 | CN[C@@H]1[C@@H](O)[C@@H](O[C@@H]2[C@@H](O)[C@H](O[C@H]3OC(CNCC(N)CO)=CC[C@H]3N)[C@@H](N)C[C@H]2NC(=O)[C@@H](O)CCN)OC[C@]1(C)O (stereo partly drawn) [Example 30, 6′-(2-Amino-propanol)-1-(4-amino-2(S)-hydroxy-butyryl)-sisomicin] | < 1 µg/mL | 1 to 16 µg/mL (≈ 1.61 to 25.7 µM) | – | –
11 | CN[C@@H]1[C@@H](O)[C@@H](O[C@@H]2[C@@H](O)[C@H](O[C@H]3OC(CNCC4(O)CCNCC4)=CC[C@H]3N)[C@@H](N)C[C@H]2NC(=O)[C@@H](O)CCN)OC[C@]1(C)O [Example 31] | 1 to 16 µg/mL (≈ 1.51 to 24.2 µM) | 1 to 16 µg/mL (≈ 1.51 to 24.2 µM) | – | –
12 | CN[C@@H]1[C@@H](O)[C@@H](O[C@@H]2[C@@H](O)[C@H](O[C@H]3OC(CNCC(O)CCCN)=CC[C@H]3N)[C@@H](N)C[C@H]2NC(=O)[C@@H](O)CCN)OC[C@]1(C)O (stereo partly drawn) [Example 32, 6′-(2-Hydroxy-5-amino-pentyl)-1-(4-amino-2(S)-hydroxy-butyryl)-sisomicin] | < 1 µg/mL | 1 to 16 µg/mL (≈ 1.54 to 24.6 µM) | – | –
13 | CN[C@@H]1[C@@H](O)[C@@H](O[C@@H]2[C@@H](O)[C@H](O[C@H]3OC(CNC[C@H]4C[C@H](N)C4)=CC[C@H]3N)[C@@H](N)C[C@H]2NC(=O)[C@@H](O)CCN)OC[C@]1(C)O [Example 33, 6′-(Methyl-trans-3-amino-cyclobutyl)-1-(4-amino-2(S)-hydroxy-butyryl)-sisomicin] | < 1 µg/mL | 1 to 16 µg/mL (≈ 1.58 to 25.3 µM) | – | –
14 | CN[C@@H]1[C@@H](O)[C@@H](O[C@@H]2[C@@H](O)[C@H](O[C@H]3OC(CNCC(O)CCN)=CC[C@H]3N)[C@@H](N)C[C@H]2NC(=O)C2(O)CCNC2)OC[C@]1(C)O (stereo partly shown) [Example 35] | < 1 µg/mL | 1 to 16 µg/mL (≈ 1.54 to 24.7 µM) | – | –
15 | CN[C@@H]1[C@@H](O)[C@@H](O[C@@H]2[C@@H](O)[C@H](O[C@H]3OC(CNCCO)=CC[C@H]3N)[C@@H](N)C[C@H]2NC(=O)C2(O)CNC2)OC[C@]1(C)O [Example 37] | < 1 µg/mL | 1 to 16 µg/mL (≈ 1.69 to 27.1 µM) | – | –
16 | CN[C@@H]1[C@@H](O)[C@@H](O[C@@H]2[C@@H](O)[C@H](O[C@H]3OC(CNCCN)=CC[C@H]3N)[C@@H](N)C[C@H]2NC(=O)[C@@H](O)CCN)OC[C@]1(C)O [Example 38, 6′-(2-Amino-ethyl)-1-(4-amino-2(S)-hydroxy-butyryl)-sisomicin] | < 1 µg/mL | 1 to 16 µg/mL (≈ 1.69 to 27 µM) | – | –
17 | CN[C@@H]1[C@@H](O)[C@@H](O[C@@H]2[C@@H](O)[C@H](O[C@H]3OC(CNCC4(O)CC(CN)C4)=CC[C@H]3N)[C@@H](N)C[C@H]2NC(=O)[C@@H](O)CCN)OC[C@]1(C)O (stereo partly shown) [Example 39] | – | – | < 1 µg/mL | 1 to 16 µg/mL (≈ 1.51 to 24.2 µM)
18 | CN[C@@H]1[C@@H](O)[C@@H](O[C@@H]2[C@@H](O)[C@H](O[C@H]3OC(CNCCCN)=CC[C@H]3N)[C@@H](N)C[C@H]2NC(=O)C2(O)CCNC2)OC[C@]1(C)O (stereo partly shown) [Example 40] | 1 to 16 µg/mL (≈ 1.62 to 25.9 µM) | 1 to 16 µg/mL (≈ 1.62 to 25.9 µM) | – | –
19 | CN[C@@H]1[C@@H](O)[C@@H](O[C@@H]2[C@@H](O)[C@H](O[C@H]3OC(CNCC4CC4)=CC[C@H]3N)[C@@H](N)C[C@H]2NC(=O)C2(O)CCNC2)OC[C@]1(C)O (stereo partly shown) [Example 41] | < 1 µg/mL | 1 to 16 µg/mL (≈ 1.63 to 26 µM) | – | –
20 | CN[C@@H]1[C@@H](O)[C@@H](O[C@@H]2[C@@H](O)[C@H](O[C@H]3OC(CNCC(O)CN)=CC[C@H]3N)[C@@H](N)C[C@H]2NC(=O)C2(O)CCNC2)OC[C@]1(C)O (stereo partly shown) [Example 42, 6′-(2-Hydroxy-3-amino-propyl)-1-(3-hydroxy-pyrrolidin-3-yl-acetyl)-sisomicin] | 1 to 16 µg/mL (≈ 1.58 to 25.2 µM) | 1 to 16 µg/mL (≈ 1.58 to 25.2 µM) | – | –
21 | CN[C@@H]1[C@@H](O)[C@@H](O[C@@H]2[C@@H](O)[C@H](O[C@H]3OC(CNCCCCN)=CC[C@H]3N)[C@@H](N)C[C@H]2NC(=O)[C@@H](O)CCN)OC[C@]1(C)O [Example 43, 6′-(4-Amino-butyl)-1-(4-amino-2(S)-hydroxy-butyryl)-sisomicin] | < 1 µg/mL | < 1 µg/mL | – | –
22 | CN[C@@H]1[C@@H](O)[C@@H](O[C@@H]2[C@@H](O)[C@H](O[C@H]3OC(CNCCCCCN)=CC[C@H]3N)[C@@H](N)C[C@H]2NC(=O)[C@@H](O)CCN)OC[C@]1(C)O [Example 44, 6′-(5-Amino-pentyl)-1-(4-amino-2(S)-hydroxy-butyryl)-sisomicin] | < 1 µg/mL | 1 to 16 µg/mL (≈ 1.58 to 25.2 µM) | – | –
23 | CN[C@@H]1[C@@H](O)[C@@H](O[C@@H]2[C@@H](O)[C@H](O[C@H]3OC(CNCC4(O)CC(N)C4)=CC[C@H]3N)[C@@H](N)C[C@H]2NC(=O)[C@@H](O)CCN)OC[C@]1(C)O (stereo partly shown) [Example 46] | < 1 µg/mL | 1 to 16 µg/mL (≈ 1.54 to 24.7 µM) | – | –

Reference: patent publication US11117915B2, “Antibacterial aminoglycoside analogs” (Cipla USA, Inc., priority 2007, dated 2021)
